Assay results published in PubChem BioAssay (NCI).
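All cell lines were grown in 96-well plates and treated with compound for 48 hours. The concentration for full growth arrest is given as TGI.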

How the values were obtained:
Assay in all cases: NCI-60 cell line screen, 48 h
ACHN renal = tested on: ACHN renal
HCC-2998 colon = tested on: HCC-2998 colon
HOP-62 NSCLC = tested on: HOP-62 NSCLC
HOP-92 NSCLC = tested on: HOP-92 NSCLC
KM12 colon = tested on: KM12 colon
MALME-3M melanoma = tested on: MALME-3M melanoma
MOLT-4 leukemia = tested on: MOLT-4 leukemia
SK-OV-3 ovarian = tested on: SK-OV-3 ovarian
SN12C renal = tested on: SN12C renal
SNB-75 CNS = tested on: SNB-75 CNS
UO-31 renal = tested on: UO-31 renal

Row | SMILES | TGI (ACHN renal) [µM] | TGI (HCC-2998 colon) [µM] | TGI (HOP-62 NSCLC) [µM] | TGI (HOP-92 NSCLC) [µM] | TGI (KM12 colon) [µM] | TGI (MALME-3M melanoma) [µM] | TGI (MOLT-4 leukemia) [µM] | TGI (SK-OV-3 ovarian) [µM] | TGI (SN12C renal) [µM] | TGI (SNB-75 CNS) [µM] | TGI (UO-31 renal) [µM]
1 | Cn1c2ccccc2c2c3c(c4c5ccccc5n(C)c4c21)C(=O)N(c1ccccc1)C3=O | > 100 | > 100 | > 100 | > 100 | > 100 | > 100 | > 100 | > 100 | > 100 | > 100 | > 100
2 | Fc1ccc2c(c1)nc1n2C(c2c(F)cccc2F)SC1 (configuration not stated) | > 100 | > 100 | > 100 | > 100 | 64.4 | > 100 | 69 | > 100 | > 100 | > 100 | > 100
3 | CC(C)(C)OC(=O)NNCC(O)COc1ccccc1 (configuration not stated) | > 100 | > 100 | > 100 | > 100 | – | > 100 | > 100 | > 100 | > 100 | – | > 100
4 | COc1ccc(C2NC(N)=C(C#N)C3=C2C(C)CCC3)cc1OC (configuration not stated) | > 100 | – | 75.7 | – | > 100 | > 100 | > 100 | > 100 | > 100 | 16.7 | > 100
5 | O=c1[nH]c2ccc(C(F)(F)F)cc2nc1C(F)(F)F | > 100 | > 100 | 55.5 | 30.2 | 57.7 | 74.2 | 63.8 | 85.7 | 87.6 | 48 | 75.6
6 | NS(=O)(=O)c1ccc(NCc2nc3ccccc3[nH]2)cc1 | > 100 | – | > 100 | > 100 | > 100 | > 100 | – | > 100 | > 100 | > 100 | > 100
7 | Cc1cc(O)c(C(C)C)cc1C(=S)Nc1ccc(Cl)cc1 | 25.7 | 33 | 32.9 | – | 23 | 21.9 | 19 | 36.4 | – | – | –
8 | Nc1ncc2c(n1)-c1ccccc1OC2 | – | > 100 | > 100 | > 100 | > 100 | > 100 | > 100 | > 100 | > 100 | 94.4 | > 100
9 | CC(C)=CCC[C@@H](C)C1=C(O)C(Nc2ccccc2)=C(C)C(=O)C1=O | 36.1 | > 100 | > 55.2 | > 78.3 | > 100 | > 75 | > 72.2 | > 96.2 | > 100 | > 85.8 | 46.4
10 | CC(C)=C=CP(=O)(O)c1ccccc1 | > 100 | > 100 | > 100 | > 100 | > 100 | > 100 | – | > 100 | > 100 | > 100 | –
11 | COc1cc2nc(-c3cccs3)nc(N3C(c4cc(OC)c(OC)c(OC)c4)=NNC(=O)c4ccccc43)c2cc1OC | > 100 | – | > 100 | > 100 | > 100 | 45 | > 100 | > 100 | 51.3 | 54.2 | > 100
12 | N#Cc1c(N2CCCC2)nsc1Nc1ccccc1 | > 100 | > 100 | – | > 100 | > 100 | > 100 | > 100 | – | > 100 | > 100 | > 100
13 | Clc1ncnc2c1nc(C#Cc1ccccc1)n2C1CCCCO1 (configuration not stated) | 3.06 | 3.54 | 6.38 | 3.83 | 3.05 | 3.91 | 8.32 | 21.3 | – | 7.78 | 3.38
14 | COc1cc(-c2nc(SC)nc3c2CCc2ccccc2-3)cc(OC)c1OC | > 100 | > 100 | > 100 | > 100 | > 100 | – | 96.2 | > 100 | > 100 | > 100 | > 100
15 | COc1ccc(/C=C2\OC(=O)C(Cl)=C2c2ccc(OC)c(Cl)c2)cc1 | > 100 | > 100 | 35.7 | 46.1 | > 100 | 62.3 | > 100 | > 100 | – | 63.4 | 48.2
16 | c1ccc(OCc2nnc(CCCCCCCCc3nnc(COc4ccccc4)o3)o2)cc1 | > 100 | > 100 | > 100 | > 100 | > 100 | – | > 100 | > 100 | > 100 | 83.4 | > 100
17 | CCOC(=O)C1=C(C)N(Cc2ccccc2)C2(O)C(OC)CC(=O)C3C(=O)N(c4ccccc4)C(=O)C132 (configuration not stated) | 48.4 | 53.5 | > 100 | 44.5 | 55.6 | 36.7 | 81.6 | – | 41.5 | – | 33
18 | ClC1=C(Cl)C2OC3C=CCC3OC2C(Cl)=C1Cl (configuration not stated) | > 100 | 88.4 | > 100 | > 100 | > 100 | – | > 100 | > 100 | – | – | > 100
19 | OCC(S)CS.[Bi] (configuration not stated) | 30.6 | 27.5 | 50.9 | 44.6 | 46.2 | 17.6 | – | > 100 | 37.9 | 26.8 | 34.1
20 | Cc1ccc(C)c2c1n1c(=O)n(C)c(=O)n21 | > 100 | > 100 | – | > 100 | > 100 | > 100 | – | > 100 | > 100 | > 100 | > 100
21 | Cc1ccsc1/C=N/Nc1cc(C)c2ccccc2n1 | 34.9 | 31.7 | 78.8 | 28.1 | 46 | – | 35.1 | 35.6 | 34 | 31.4 | 36.1
22 | O=S(=O)(O)c1cc(N=[N+]([O-])c2ccc(N=Nc3ccccc3)cc2S(=O)(=O)O)ccc1/C=C/c1ccc(N=[N+]([O-])c2ccc(N=Nc3ccccc3)cc2S(=O)(=O)O)cc1S(=O)(=O)O | – | > 100 | > 100 | > 100 | > 100 | > 100 | > 100 | > 100 | > 100 | > 100 | > 100
